# In patent US12459951B2, “Compounds that interact with RAS superfamily proteins for treatment of cancers, inflammatory diseases, rasopathies, and fibrotic disease” (SHY Therapeutics, LLC, priority 2022, dated 2025):
# Assays:
# Erk1/2 phosphorylation = experiment: Erk1/2 Phosphorylation Assay (western blot), Panc-1; type: cell-based, human; conditions: at 10 μM, * = activation
# Procedure, shortened: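 KRas G12D Panc-1 cells were treated 6 h at 37° C with compound at 10 μM or serial dilutions for IC50 (0.3% DMSO). In method 1, cells were serum-starved overnight (0.5% FBS) and then given 1.5 ng/ml EGF for 15 min. In method 2, cells stayed in 10% FBS without stimulation. Lysate phospho-Erk1/2 (Thr202/Tyr204) was read by western blot.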
# [1] = Mouse Liver Microsome Metabolic Stability Assay; type: in vitro ADME; conditions: pH 7.4, Mouse liver microsomes, 37° C., NADPH, read-out: t½
# Procedure: Biological Example 10: Assessment of Metabolic Stability in Mouse Liver Microsomes
# Metabolic Stability Assay: Microsomal incubations were carried out in 96-well plates in 5 aliquots of 30 μL each (one for each time point). Liver microsomal incubation medium comprised of phosphate buffer (100 mM, pH 7.4), MgCl2 (3.3 mM), NADPH (3 mM), glucose-6-phosphate (5.3 mM), glucose-6-phosphate dehydrogenase (0.67 units/ml) with 0.42 mg of liver microsomal protein per mL. In the control reactions the NADPH-cofactor system was substituted with phosphate buffer. Test compounds (2 μM, final solvent concentration 1.6%) were incubated with microsomes at 37° C., shaking at 100 rpm. Each reaction was performed in duplicates. Five time points over 40 minutes were analyzed. The reactions were stopped by adding 5 volumes of methanol containing internal standard to incubation aliquots, followed by protein sedimentation by centrifuging at 5500 rpm for 4 minutes. Supernatants were analyzed using the HPLC system coupled with tandem mass spectrometer.
# The elimination constant (kel), half-life (t1/2) and intrinsic clearance (Clint) were determined in plot of […] versus time, using linear regression analysis:
# In order to indicate the quality of the linear regression analysis, the R (correlation coefficient) values are provided. In some cases, the last time point is excluded from the calculations to ensure acceptable logarithmic linearity of decay.
# Table 9 show metabolic stability data for selected compounds tested in the Mouse Liver Microsome Metabolic Stability assay described above.
# [2] = Kinetic Solubility Assay in pH 7.4 Buffer + 2% DMSO; type: physicochemical; conditions: phosphate-buffered saline pH 7.4 with 2% DMSO, aqueous buffer, kinetic from dmso stock, 25° C., two hours
# Procedure: Biological Example 9: Kinetic Solubility
# Kinetic solubility assay in pH 7.4 Buffer+2% DMSO (“Kinetic Solubility Assay) was performed according to the following protocol: Briefly, using a 20 mM stock solution of the tested compounds in 100% DMSO, dilutions were prepared to a theoretical concentration of 400 μM in duplicates in phosphate-buffered saline pH 7.4 (138 mM NaCl, 2.7 mM KCl, 10 mM K-phosphate) with 2% final DMSO. The tested compounds dilutions in PBS were further allowed to equilibrate at 25° C. on a thermostatic shaker for two hours and then filtered through HTS filter plates using a vacuum manifold. The filtrates of the test compounds were diluted 2-fold with acetonitrile with 2% DMSO before measuring.
# In parallel, using a 20 mM stock solution of the tested compounds in 100% DMSO, dilutions were prepared to theoretical concentrations of 0 μM (blank), 10 μM, 25 μM, 50 μM, 100 μM, and 200 μM in 50% acetonitrile/PBS with 2% final DMSO to generate calibration curves. Ondansetron was used as a reference compound to control proper assay performance. 200 μL of each sample was transferred to a 96-well plate and measured in the 230-550 nm range with a 5 nm step.
# The concentrations of compounds in PBS filtrate are calculated using a dedicated Microsoft Excel calculation script. Proper absorbance wavelengths for calculations are selected for each compound manually based on absorbance maximums (absolute absorbance unit values for the minimum and maximum concentration points within the 0-3 OD range). Each final dataset is visually evaluated by the operator, and goodness of fit (R2) is calculated for each calibration curve. The effective range of this assay is approximately 2-400 μM and the compounds returning values close to the upper limit of the range may have higher actual solubility (e.g., 5′-deoxy-5-fluorouridine).
# Table 8 show kinetic solubility data for selected compounds tested in the Kinetic Solubility assay described above.
Compound,% inh of Erk1/2 phosphorylation in Panc-1 (Erk1/2 phosphorylation),half-life at 2 µM [1],solubility at 2 h [2]
"Cc1c(-c2ccn(C)n2)cn2nc(-c3nccn3C)nc(Nc3cc(OC(F)F)ccn3)c12 [Compound 128, N-(4-(Difluoromethoxy)pyridin-2-yl)-5-methyl-2-(1-methyl-1H-imidazol-2-yl)-6-(1-methyl-1H-pyrazol-3-yl)pyrrolo[2,1-f][1,2,4]triazin-4-amine]",D* (85-100% activation),> 10 min,
"Cc1c(-c2ccn(C3CC3)n2)cn2nc(-c3nccn3C)nc(Nc3ccccn3)c12 [Compound 143, 6-(1-Cyclopropyl-1H-pyrazol-3-yl)-5-methyl-2-(1-methyl-1H-imidazol-2-yl)-N-(pyridin-2-yl)pyrrolo[2,1-f][1,2,4]triazin-4-amine]",D* (85-100% activation),< 10 min,< 10 µM
"Cc1c(-c2cccnc2)cn2nc(-c3nccn3C)nc(Nc3ccncn3)c12 [Compound 156, 5-Methyl-2-(1-methyl-1H-imidazol-2-yl)-6-(pyridin-3-yl)-N-(pyrimidin-4-yl)pyrrolo[2,1-f][1,2,4]triazin-4-amine]",D* (85-100% activation),> 10 min,
"Cc1c(-c2ccn(C)n2)cn2nc(-c3nccn3C)nc(Nc3cc4n(n3)CCC4)c12 [Compound 100, N-(5,6-Dihydro-4H-pyrrolo[1,2-b]pyrazol-2-yl)-5-methyl-2-(1-methyl-1H-imidazol-2-yl)-6-(1-methyl-1H-pyrazol-3-yl)pyrrolo[2,1-f][1,2,4]triazin-4-amine]",C* (46-84% activation),,10 to 30 µM
"Cc1c(-c2ccn(C)n2)cn2nc(-c3nccn3C)nc(Nc3cc(C4CC4)[nH]n3)c12 [Compound 104, N-(5-Cyclopropyl-1H-pyrazol-3-yl)-5-methyl-2-(1-methyl-1H-imidazol-2-yl)-6-(1-methyl-1H-pyrazol-3-yl)pyrrolo[2,1-f][1,2,4]triazin-4-amine]",D* (85-100% activation),> 10 min,< 10 µM
"Cc1c(-c2ccn(C)n2)cn2nc(-c3nccn3C)nc(Nc3ccccn3)c12 [Compound 118, 5-Methyl-2-(1-methyl-1H-imidazol-2-yl)-6-(1-methyl-1H-pyrazol-3-yl)-N-(pyridin-2-yl)pyrrolo[2,1-f][1,2,4]triazin-4-amine]",D* (85-100% activation),,> 30 µM
"Cc1c(-c2ccn(C3CC3)n2)cn2nc(-c3nccn3C)nc(Nc3cc(N(C)C)ccn3)c12 [Compound 145, N^2-(6-(1-Cyclopropyl-1H-pyrazol-3-yl)-5-methyl-2-(1-methyl-1H-imidazol-2-yl)pyrrolo[2,1-f][1,2,4]triazin-4-yl)-N^4,N^4-dimethylpyridine-2,4-diamine]",C* (46-84% activation),> 10 min,10 to 30 µM
"Cc1c(-c2ccn(C)n2)cn2nc(-c3nccn3C)nc(Nc3cc(OC4CC4)ccn3)c12 [Compound 126, N-(4-Cyclopropoxypyridin-2-yl)-5-methyl-2-(1-methyl-1H-imidazol-2-yl)-6-(1-methyl-1H-pyrazol-3-yl)pyrrolo[2,1-f][1,2,4]triazin-4-amine]",D* (85-100% activation),> 10 min,
"Cc1c(-c2ccn(C)n2)cn2nc(-c3nccn3C)nc(Nc3cc(OC(F)(F)F)ccn3)c12 [Compound 127, 5-Methyl-2-(1-methyl-1H-imidazol-2-yl)-6-(1-methyl-1H-pyrazol-3-yl)-N-(4-(trifluoromethoxy)pyridin-2-yl)pyrrolo[2,1-f][1,2,4]triazin-4-amine]",D* (85-100% activation),< 10 min,
"Cc1ccnc(Nc2nc(-c3nccn3C)nn3cc(-c4ccn(C5CC5)n4)c(C)c23)c1 [Compound 144, 6-(1-Cyclopropyl-1H-pyrazol-3-yl)-5-methyl-2-(1-methyl-1H-imidazol-2-yl)-N-(4-methylpyridin-2-yl)pyrrolo[2,1-f][1,2,4]triazin-4-amine]",A (1-25% inhibition),> 10 min,< 10 µM
"COc1ccnc(Nc2nc(-c3nccn3C)nn3cc(-c4cccnc4)c(C)c23)n1 [Compound 158, N-(4-Methoxy-pyrimidin-2-yl)-5-methyl-2-(1-methyl-1H-imidazol-2-yl)-6-(pyridin-3-yl)pyrrolo[2,1-f][1,2,4]triazin-4-amine]",A (1-25% inhibition),< 10 min,10 to 30 µM
"Cc1c(-c2ccn(C)n2)cn2nc(-c3nccn3C)nc(Nc3cc4n(n3)CCO4)c12 [Compound 124, N-(5-Methyl-2-(1-methyl-1H-imidazol-2-yl)-6-(1-methyl-1H-pyrazol-3-yl)pyrrolo[2,1-f][1,2,4]triazin-4-yl)-2,3-dihydropyrazolo[5,1-b]oxazol-6-amine]",C* (46-84% activation),> 10 min,10 to 30 µM
"CCOc1ccnc(Nc2nc(-c3nccn3C)nn3cc(-c4ccn(C5CC5)n4)c(C)c23)c1 [Compound 141, 6-(1-Cyclopropyl-1H-pyrazol-3-yl)-N-(4-ethoxypyridin-2-yl)-5-methyl-2-(1-methyl-1H-imidazol-2-yl)pyrrolo[2,1-f][1,2,4]triazin-4-amine]",B (26-49% inhibition),> 10 min,10 to 30 µM
"COc1ccnc(Nc2nc(-c3nccn3C)nn3cc(-c4cccnc4)c(C)c23)c1 [Compound 157, N-(4-Methoxy-pyridin-2-yl)-5-methyl-2-(1-methyl-1H-imidazol-2-yl)-6-(pyridin-3-yl)pyrrolo[2,1-f][1,2,4]triazin-4-amine]",C* (46-84% activation),> 10 min,< 10 µM
"Cc1c(-c2ccn(C)n2)cn2nc(-c3nccn3C)nc(Nc3cc(OCC(F)(F)F)ccn3)c12 [Compound 129, 5-Methyl-2-(1-methyl-1H-imidazol-2-yl)-6-(1-methyl-1H-pyrazol-3-yl)-N-(4-(2,2,2-trifluoroethoxy)pyridin-2-yl)pyrrolo[2,1-f][1,2,4]triazin-4-amine]",D* (85-100% activation),> 10 min,
"Cc1c(-c2ccn(C)n2)cn2nc(-c3nccn3C)nc(Nc3ccncn3)c12.Cl [Compound 116, 5-Methyl-2-(1-methyl-1H-imidazol-2-yl)-6-(1-methyl-1H-pyrazol-3-yl)-N-(pyrimidin-4-yl)pyrrolo[2,1-f][1,2,4]triazin-4-amine hydrochloride salt]",D* (85-100% activation),,10 to 30 µM
"COc1cccnc1Nc1nc(-c2nccn2C)nn2cc(-c3ccn(C)n3)c(C)c12 [Compound 112, N-(3-Methoxypyridin-2-yl)-5-methyl-2-(1-methyl-1H-imidazol-2-yl)-6-(1-methyl-1H-pyrazol-3-yl)pyrrolo[2,1-f][1,2,4]triazin-4-amine]",A* (1-25% activation),,
"Cc1c(-c2ccn(C3CC3)n2)cn2nc(-c3nccn3C)nc(Nc3cc(O)ccn3)c12 [Compound 150, 2-((6-(1-Cyclopropyl-1H-pyrazol-3-yl)-5-methyl-2-(1-methyl-1H-imidazol-2-yl)pyrrolo[2,1-f][1,2,4]triazin-4-yl)amino)pyridin-4-ol]",A (1-25% inhibition),,
